Test results published in patent publication US20050203191A1, “1-Aminocyclohexane derivatives for the treatment of agitation and other behavioral disorders, especially those associated with alzheimer's disease” (priority 2004, published 2005).

System: moderate to severe Alzheimer's patients treated with ongoing donepezil therapy
Assay: MD-02 (Therapy Example 2): 24-week double-blind placebo-controlled trial of memantine added to ongoing donepezil
Format: in vivo, human
Details: MD-02, on donepezil, week 24, ITT LOCF
Experimental: A 24 week, double-blind, placebo-controlled trial was conducted in moderate to severe Alzheimer's patients (N=404) treated with ongoing donepezil therapy and randomized to memantine or placebo. Behavioral symptoms were assessed using the NPI administered at baseline, Week 12 and the final visit (Week 24). The trial already had established benefits of memantine on functional, cognitive, and global measures. The statistical analysis was based on the ITT population using the last observation carried forward (LOCF) and observed case (OC) approaches.
This study enrolled four hundred and four patients diagnosed with probable AD according to the National Institute of Neurological and Communicative Disorders and Stroke—Alzheimer's Disease and Related Disorders Association (NINCDS-ADRDA) criteria with moderate to severe stages of illness. Inclusion criteria were as follows: Mini-Mental State Examination (MMSE) score of 5-14 at screening and at baseline; minimum age of 50 years; a recent MRI or CT scan consistent with a diagnosis of probable AD; on AChEI therapy, which was defined by the protocol to be donepezil, for more than 6 months prior to entrance into the trial and at a stable dose (5-10 mg/day) for at least 3 months prior to entrance in the trial; a knowledgeable and reliable caregiver to accompany the patient to research visits and oversee the administration of the investigational agent during the trial; residence in the community; ambulatory or ambulatory-aided (i.e. walker or cane) ability; and stable medical condition.
Patients were excluded for clinically significant reasons; B12 or folate deficiency; active pulmonary, gastrointestinal, renal, hepatic, endocrine, or cardiovascular disease; other psychiatric or central nervous system disorders; CT or MRI evidence of clinically significant central nervous system disorders other than probable AD; dementia complicated by other organic disease; or a modified Hachinski Ischemia Score30 greater than 4 at screening.
This was a prospective, randomized, placebo-controlled, parallel-arm, fixed-dose trial in which participants were assigned to double-blind treatment for 24 weeks with a 1-2 week single-blind, placebo lead-in phase prior to randomization. The initial dose of memantine was 5 mg/day with escalation to 20 mg/day over the first 3 weeks of double-blind treatment. All patients were to maintain their protocol-defined AChEI therapy at entry dose for the duration of the study. From week 3 to the end of week 8 of double-blind treatment, transient dosage adjustments for memantine treatment were permitted for patients experiencing dose-limiting adverse events. All memantine-treated patients were required to receive the target dose of 20 mg/day by the end of week 8, and patients not tolerating the target dose at that time were discontinued.
Patients were randomly allocated in permuted blocks of four to one of the two treatment. Blinded study medication was supplied to each study site for dispensation in blister packs at each visit. No unblinding occurred during the trial. Compliance monitoring was conducted via pill counts, and over 95% of both treatment groups had >75% compliance (95% for the placebo/AChEI treatment group and 96.5% for the memantine/AChEI treatment group).
Cognitive, functional, global, and behavioral outcome measures were obtained at screening, baseline, and at the end of weeks 4, 8, 12, 18, and 24. […] The efficacy parameters were the change from baseline on the SIB, a modified ADCS-ADL Inventory score at week 24, and the NPI. The 12-item version of the NPI was used here, with a total score ranging from 0-144. Higher scores reflect greater symptomatology. The NPI was assessed at baseline, at the end of week 12, and at the final visit.
Three populations were considered in the statistical analyses. […]

[1] = NPI total score ≧=75% (top quartile)
[2] = antipsychotics usage “YES” (N = n)
[3] = antipsychotics usage “YES” (N = y)
[4] = baseline NPI agitation score <4
[5] = baseline NPI agitation score ≧=4

CC12CC3CC(C)(C1)CC(N)(C3)C2 [memantine, 1-amino-3,5-dimethyl adamantane]
ADCS-ADL (change) LS Mean Diff., MEM v. PLA (NPI total score <75%): 1.17 | ADCS-ADL (change) mean (NPI total score <75%): −1.6 | CIBIC-PLUS Raw Mean Diff., MEM v. PLA (NPI total score <75%): −0.2 | CIBIC-PLUS mean (NPI total score <75%): 4.4 | SIB (change) LS Mean Diff., MEM v. PLA (NPI total score <75%): 2.5 | SIB (change) mean (NPI total score <75%): 0.9 | ADCS-ADL (change) LS Mean Diff., MEM v. PLA [1]: 1.73 | ADCS-ADL (change) mean [1]: −2.6 | CIBIC-PLUS Raw Mean Diff., MEM v. PLA [1]: −0.3 | CIBIC-PLUS mean [1]: 4.4 | SIB (change) LS Mean Diff., MEM v. PLA [1]: 6.1 | SIB (change) mean [1]: −1.4 | ADCS-ADL (change) LS Mean Diff., MEM v. PLA (NPI total score ≧=75% (top quartile), listed as MEM): −1.73 | ADCS-ADL (change) LS Mean Diff., MEM v. PLA [2]: 0.9 | ADCS-ADL (change) mean [2]: −1.8 | CIBIC-PLUS Raw Mean Diff., MEM v. PLA [2]: −0.08 | CIBIC-PLUS mean [2]: 4.45 | SIB (change) LS Mean Diff., MEM v. PLA [2]: 1.7 | SIB (change) mean [2]: 0.3 | ADCS-ADL (change) LS Mean Diff., MEM v. PLA [3]: 3.6 | ADCS-ADL (change) mean [3]: −2.1 | CIBIC-PLUS Raw Mean Diff., MEM v. PLA [3]: −1.18 | CIBIC-PLUS mean [3]: 4.17 | SIB (change) LS Mean Diff., MEM v. PLA [3]: 12.4 | SIB (change) mean [3]: 5.2 | ADCS-ADL (change) LS Mean Diff., MEM v. PLA [4]: 1.2 | ADCS-ADL (change) mean [4]: −1.8 | CIBIC-PLUS Raw Mean Diff., MEM v. PLA [4]: −0.3 | CIBIC-PLUS mean [4]: 4.4 | SIB (change) LS Mean Diff., MEM v. PLA [4]: 3.6 | SIB (change) mean [4]: 1.0 | SIB (change) LS Mean Diff., MEM v. PLA (baseline NPI agitation score <4, listed as MEM): 3.4 | ADCS-ADL (change) LS Mean Diff., MEM v. PLA [5]: 2.1 | ADCS-ADL (change) mean [5]: −2.0 | CIBIC-PLUS Raw Mean Diff., MEM v. PLA [5]: −0.1 | SIB (change) LS Mean Diff., MEM v. PLA [5]: 3.8 | SIB (change) mean [5]: 1.1 | ADCS-ADL (change) LS mean (overall): −2.00 | CIBIC-PLUS LS mean (overall): 4.41 | SIB (change) LS mean (overall): 0.90 | ADCS-ADL (change) LS Mean Diff., MEM v. PLA (overall, listed as MEM): −1.40 | CIBIC-PLUS Raw Mean Diff., MEM v. PLA (overall, listed as MEM): −0.25 | SIB (change) LS Mean Diff., MEM v. PLA (overall, listed as MEM): −3.40
